In ChEMBL document CHEMBL1201862, “PubChem BioAssay data set” (2004):
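In this assay, cells in 96-well plates receive the compound at five concentrations for 48 hours. Endpoints are linearly interpolated between the surrounding concentrations. GI50: concentration for 50% inhibition of growth.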 Activity calls are given as the source filed them. No stated cut-off is given here; in the data, active = GI50 up to about 1.1 µM and inactive = higher.

Assays:
Assay in all cases: DTP human tumour cell line panel, 48 h
UACC-62 = tested on: UACC-62
DU-145 = tested on: DU-145
SF-539 = tested on: SF-539
SF-268 = tested on: SF-268
HL-60 = tested on: HL-60
HCC 2998 = tested on: HCC 2998
786-0 = tested on: 786-0
NCI-H23 = tested on: NCI-H23
CAKI-1 = tested on: CAKI-1
U-251 = tested on: U-251
ACHN = tested on: ACHN
MCF7 = tested on: MCF7
SN12C = tested on: SN12C
M14 = tested on: M14
EKVX = tested on: EKVX
OVCAR-3 = tested on: OVCAR-3
OVCAR-5 = tested on: OVCAR-5
NCI-H460 = tested on: NCI-H460
K562 = tested on: K562

SMILES	GI50 (UACC-62)	GI50 (DU-145)	GI50 (SF-539)	GI50 (SF-268)	GI50 (HL-60)	GI50 (HCC 2998)	GI50 (786-0)	GI50 (NCI-H23)	GI50 (CAKI-1)	GI50 (U-251)	GI50 (ACHN)	GI50 (MCF7)	GI50 (SN12C)	GI50 (M14)	GI50 (EKVX)	GI50 (OVCAR-3)	GI50 (OVCAR-5)	GI50 (NCI-H460)	GI50 (K562)
O=C1c2cc(-c3ccccc3)cnc2S(=O)(=O)N1c1ccc(Br)cc1	32.8 µM (inactive)	58.3 µM (inactive)	30.5 µM (inactive)	33.7 µM (inactive)	18.9 µM (inactive)	17.8 µM (inactive)	37.6 µM (inactive)	63.1 µM (inactive)	40.4 µM (inactive)	30.1 µM (inactive)	> 100 µM (inactive)	> 100 µM (inactive)	> 100 µM (inactive)	76.9 µM (inactive)	> 100 µM (inactive)	47.1 µM (inactive)	40.8 µM (inactive)	24.3 µM (inactive)	–
COC1CCON1C(=O)c1ccccc1 (stereo not given)	–	> 10 µM (inactive)	> 10 µM (inactive)	> 10 µM (inactive)	> 10 µM (inactive)	> 10 µM (inactive)	> 10 µM (inactive)	> 10 µM (inactive)	> 10 µM (inactive)	–	> 10 µM (inactive)	> 10 µM (inactive)	> 10 µM (inactive)	> 10 µM (inactive)	> 10 µM (inactive)	> 10 µM (inactive)	> 10 µM (inactive)	> 10 µM (inactive)	> 10 µM (inactive)
CC(=O)NC1=C(Sc2ccc(Cl)cc2)C(=O)c2ccccc2C1=O	2.61 µM (inactive)	14.6 µM (inactive)	2.15 µM (inactive)	2.53 µM (inactive)	0.285 µM (active)	14.7 µM (inactive)	2.09 µM (inactive)	5.28 µM (inactive)	3.7 µM (inactive)	3.84 µM (inactive)	1.8 µM (inactive)	2.08 µM (inactive)	4.67 µM (inactive)	–	5.71 µM (inactive)	2.05 µM (inactive)	11.7 µM (inactive)	8.34 µM (inactive)	2.56 µM (inactive)
O=C(c1ccccc1)N(CCCCNC(=O)C(F)(F)F)CCCNC(=O)C(F)(F)F	> 100 µM (inactive)	> 100 µM (inactive)	> 100 µM (inactive)	> 100 µM (inactive)	> 100 µM (inactive)	> 100 µM (inactive)	> 100 µM (inactive)	> 100 µM (inactive)	> 100 µM (inactive)	> 100 µM (inactive)	> 100 µM (inactive)	> 100 µM (inactive)	> 100 µM (inactive)	> 100 µM (inactive)	> 100 µM (inactive)	–	> 100 µM (inactive)	> 100 µM (inactive)	> 100 µM (inactive)
CN(CCc1ccc(Br)cc1)CCN1CCCCC1	–	99.5 µM (inactive)	27.3 µM (inactive)	65.3 µM (inactive)	–	33.7 µM (inactive)	30.1 µM (inactive)	31.9 µM (inactive)	43.2 µM (inactive)	39.5 µM (inactive)	62.5 µM (inactive)	21.7 µM (inactive)	81.1 µM (inactive)	22.8 µM (inactive)	> 100 µM (inactive)	36.6 µM (inactive)	41 µM (inactive)	37.9 µM (inactive)	15.1 µM (inactive)
CC(C)(O)[C@@H]1CC[C@](C)(C2[C@@H](O)C[C@@]3(C)C4C[C@H](OC5OCC(O)C(O)C5O)[C@H]5C(C)(C)[C@@H](OC6OCC(O)C(O)C6OC6OCC(O)C(O)C6O)CC[C@@]56C[C@@]46CC[C@]23C)O1 (stereo not given in full)	> 100 µM (inactive)	> 100 µM (inactive)	> 100 µM (inactive)	> 100 µM (inactive)	> 100 µM (inactive)	> 100 µM (inactive)	> 100 µM (inactive)	> 100 µM (inactive)	> 100 µM (inactive)	> 100 µM (inactive)	–	> 100 µM (inactive)	> 100 µM (inactive)	> 100 µM (inactive)	> 100 µM (inactive)	> 100 µM (inactive)	> 100 µM (inactive)	> 100 µM (inactive)	> 100 µM (inactive)
CCO/C=C(\C(=O)OC)S(=O)(=O)c1ccc(C)cc1	> 100 µM (inactive)	> 100 µM (inactive)	> 100 µM (inactive)	> 100 µM (inactive)	0.0596 µM (active)	> 100 µM (inactive)	> 100 µM (inactive)	> 100 µM (inactive)	–	> 100 µM (inactive)	> 100 µM (inactive)	> 100 µM (inactive)	> 100 µM (inactive)	> 100 µM (inactive)	> 100 µM (inactive)	> 100 µM (inactive)	> 100 µM (inactive)	> 100 µM (inactive)	> 100 µM (inactive)
C=CC1(c2ccc(OC)cc2)OCCCO1	> 100 µM (inactive)	> 100 µM (inactive)	> 100 µM (inactive)	> 100 µM (inactive)	> 100 µM (inactive)	> 100 µM (inactive)	> 100 µM (inactive)	> 100 µM (inactive)	–	> 100 µM (inactive)	> 100 µM (inactive)	> 100 µM (inactive)	> 100 µM (inactive)	> 100 µM (inactive)	15 µM (inactive)	> 100 µM (inactive)	> 100 µM (inactive)	> 100 µM (inactive)	> 100 µM (inactive)
CC1=C(C(=O)OC23CC4CC(CC(C4)C2)C3)C(c2ccccc2OC(F)F)C(C(=O)OC23CC4CC(CC(C4)C2)C3)=C(C)N1 (stereo not given)	> 100 µM (inactive)	> 100 µM (inactive)	> 100 µM (inactive)	> 100 µM (inactive)	> 100 µM (inactive)	> 100 µM (inactive)	> 100 µM (inactive)	> 100 µM (inactive)	> 100 µM (inactive)	> 100 µM (inactive)	–	74.6 µM (inactive)	> 100 µM (inactive)	> 100 µM (inactive)	> 10 µM (inactive)	50.5 µM (inactive)	> 100 µM (inactive)	> 100 µM (inactive)	–
COc1cc(-c2nc(SC)nc3c2CCc2ccccc2-3)cc(OC)c1OC	82.4 µM (inactive)	79.8 µM (inactive)	83.4 µM (inactive)	91.2 µM (inactive)	> 100 µM (inactive)	> 100 µM (inactive)	50.6 µM (inactive)	> 100 µM (inactive)	–	93.1 µM (inactive)	> 100 µM (inactive)	50.1 µM (inactive)	> 100 µM (inactive)	> 100 µM (inactive)	29.1 µM (inactive)	95.1 µM (inactive)	> 100 µM (inactive)	–	22.3 µM (inactive)
COc1ccc(/N=C2\C(=N/c3ccc(OC)cc3)N(S(=O)(=O)c3ccccc3)C(=S)N2c2ccccc2)cc1	> 100 µM (inactive)	> 100 µM (inactive)	> 100 µM (inactive)	> 100 µM (inactive)	–	> 100 µM (inactive)	> 100 µM (inactive)	> 100 µM (inactive)	> 100 µM (inactive)	> 100 µM (inactive)	> 100 µM (inactive)	> 100 µM (inactive)	> 100 µM (inactive)	> 100 µM (inactive)	> 100 µM (inactive)	> 100 µM (inactive)	> 100 µM (inactive)	> 100 µM (inactive)	> 100 µM (inactive)
COC(=O)[C@](NC(=O)OCc1ccccc1)([C@@H](C)Sc1ccc(C)cc1)C(F)(F)F	39.2 µM (inactive)	24.7 µM (inactive)	69.3 µM (inactive)	38.4 µM (inactive)	17.4 µM (inactive)	> 100 µM (inactive)	59.7 µM (inactive)	19.7 µM (inactive)	57.5 µM (inactive)	46.9 µM (inactive)	60.3 µM (inactive)	28.9 µM (inactive)	–	68.2 µM (inactive)	57.9 µM (inactive)	> 100 µM (inactive)	> 100 µM (inactive)	34.5 µM (inactive)	23.6 µM (inactive)
COc1nc(=O)n(C2CC(F)C(CO)O2)cc1C (stereo not given)	> 100 µM (inactive)	> 100 µM (inactive)	> 100 µM (inactive)	> 100 µM (inactive)	> 100 µM (inactive)	> 100 µM (inactive)	> 100 µM (inactive)	> 100 µM (inactive)	> 100 µM (inactive)	> 100 µM (inactive)	> 100 µM (inactive)	> 100 µM (inactive)	> 100 µM (inactive)	> 100 µM (inactive)	> 100 µM (inactive)	> 100 µM (inactive)	–	> 100 µM (inactive)	> 100 µM (inactive)
COc1ccc(/C=C2\N=C(N3CCCC(CO)C3)NC2=O)cc1 (stereo not given)	> 100 µM (inactive)	> 100 µM (inactive)	> 100 µM (inactive)	> 100 µM (inactive)	> 100 µM (inactive)	> 100 µM (inactive)	> 100 µM (inactive)	> 100 µM (inactive)	> 100 µM (inactive)	> 100 µM (inactive)	> 100 µM (inactive)	> 100 µM (inactive)	> 100 µM (inactive)	> 100 µM (inactive)	> 100 µM (inactive)	> 100 µM (inactive)	> 100 µM (inactive)	–	–
Nc1cc2nc(-c3ccccc3)cn2cn1	54.6 µM (inactive)	> 100 µM (inactive)	> 100 µM (inactive)	> 100 µM (inactive)	> 100 µM (inactive)	–	> 100 µM (inactive)	> 100 µM (inactive)	89.9 µM (inactive)	> 100 µM (inactive)	> 100 µM (inactive)	70.1 µM (inactive)	85.1 µM (inactive)	> 100 µM (inactive)	29.3 µM (inactive)	> 100 µM (inactive)	79.6 µM (inactive)	99.1 µM (inactive)	> 100 µM (inactive)
